Measured values: publication PMC3646808, “Aggregate-Reactivation Activity of the Molecular Chaperone ClpB from Ehrlichia chaffeensis” (PLoS ONE, 2013)
Blank lines part the entries; values can stand above or below the molecule they belong to.

Tests used:
[1] = target: T1, EcClpB (Escherichia coli, UniProt P63284); test: phosphate release ATPase assay; type: biochemical; conditions: 5 mM ATP, 10 mM MgCl2, 100 mM Tris/HCl pH 8.0, 37 °C; basal activity
T1 construct: gene clpB; purified, produced or obtained as previously described; hexamer
T1 sequence (P63284 whole entry): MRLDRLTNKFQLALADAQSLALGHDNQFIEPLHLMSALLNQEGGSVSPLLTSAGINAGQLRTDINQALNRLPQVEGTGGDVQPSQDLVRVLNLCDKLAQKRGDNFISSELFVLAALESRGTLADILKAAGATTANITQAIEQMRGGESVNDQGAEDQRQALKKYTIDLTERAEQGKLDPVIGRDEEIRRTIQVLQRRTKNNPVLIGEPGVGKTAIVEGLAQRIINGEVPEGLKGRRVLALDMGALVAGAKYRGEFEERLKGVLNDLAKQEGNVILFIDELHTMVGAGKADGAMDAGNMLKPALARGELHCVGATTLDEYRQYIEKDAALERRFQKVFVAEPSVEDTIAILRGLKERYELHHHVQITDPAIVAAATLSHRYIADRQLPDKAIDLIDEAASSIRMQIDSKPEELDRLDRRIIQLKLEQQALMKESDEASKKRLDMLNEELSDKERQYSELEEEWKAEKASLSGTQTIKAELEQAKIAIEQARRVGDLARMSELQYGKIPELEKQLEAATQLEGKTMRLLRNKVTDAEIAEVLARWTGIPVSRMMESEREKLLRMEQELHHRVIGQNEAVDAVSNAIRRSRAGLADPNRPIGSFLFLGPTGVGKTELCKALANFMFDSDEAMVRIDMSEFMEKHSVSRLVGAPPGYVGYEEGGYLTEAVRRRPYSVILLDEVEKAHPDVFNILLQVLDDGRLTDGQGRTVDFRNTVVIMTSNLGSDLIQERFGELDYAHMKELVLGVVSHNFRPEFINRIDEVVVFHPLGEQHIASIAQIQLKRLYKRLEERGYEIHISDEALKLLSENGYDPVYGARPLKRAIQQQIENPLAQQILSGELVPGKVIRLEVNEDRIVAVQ

[2] = target: T2, EhClpB (Ehrlichia chaffeensis, UniProt Q2GH96); conditions: 5 mM ATP, 10 mM MgCl2, 100 mM Tris/HCl pH 8.0, 37 °C; basal activity
T2 construct: gene clpB
T2 sequence (Q2GH96 entry or part of it): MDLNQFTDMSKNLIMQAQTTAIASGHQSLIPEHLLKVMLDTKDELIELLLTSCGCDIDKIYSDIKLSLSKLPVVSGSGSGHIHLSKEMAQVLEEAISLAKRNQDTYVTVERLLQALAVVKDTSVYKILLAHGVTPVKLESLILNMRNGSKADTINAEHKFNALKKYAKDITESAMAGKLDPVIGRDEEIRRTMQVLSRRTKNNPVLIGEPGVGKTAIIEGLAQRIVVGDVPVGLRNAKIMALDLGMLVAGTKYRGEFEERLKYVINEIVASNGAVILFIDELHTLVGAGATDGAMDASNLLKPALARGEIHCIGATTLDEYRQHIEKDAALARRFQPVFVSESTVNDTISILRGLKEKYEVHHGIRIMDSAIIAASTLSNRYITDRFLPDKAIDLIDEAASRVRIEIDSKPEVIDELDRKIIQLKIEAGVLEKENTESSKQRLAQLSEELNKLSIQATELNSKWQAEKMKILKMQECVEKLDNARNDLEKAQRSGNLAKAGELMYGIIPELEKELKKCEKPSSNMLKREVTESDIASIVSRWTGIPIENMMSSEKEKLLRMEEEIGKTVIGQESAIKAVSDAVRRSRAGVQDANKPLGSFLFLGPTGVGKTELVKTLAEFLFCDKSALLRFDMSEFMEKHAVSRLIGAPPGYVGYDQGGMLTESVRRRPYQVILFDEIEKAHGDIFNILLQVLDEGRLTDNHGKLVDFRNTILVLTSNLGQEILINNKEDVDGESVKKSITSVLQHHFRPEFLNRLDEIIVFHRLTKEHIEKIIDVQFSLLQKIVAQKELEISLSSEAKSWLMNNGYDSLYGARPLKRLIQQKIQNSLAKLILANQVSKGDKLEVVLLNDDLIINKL

[3] = target: T1, EcClpB; test: filter retention with SDS-PAGE, nucleotide-induced binding to aggregated G6PDH; conditions: 6 mM nucleotide, 20 mM Mg(OAc)2, 50 mM Tris/HCl pH 7.5, 30 °C; indirect read-out
[4] = target: ClpB from Ehrlichia chaffeensis (E. chaffeensis); test: AUC; sedimentation velocity, 48,000 rpm, 20°C, 0.3 mg/ml protein in 50 mM Hepes/KOH pH 7.5, 0.2 M KCl, 20 mM MgCl2, 1 mM EDTA, 2 mM β-mercaptoethanol, with 2 mM ATPγS

Molecule: Nc1ncnc2c1ncn2[C@@H]1O[C@H](COP(=O)(O)OP(=O)(O)OP(=O)(O)O)[C@@H](O)[C@H]1O [ATP]
- phosphate release ATPase assay [1]: the basal ATPase of EhClpB was similar to that of the purified EcClpB
- phosphate release ATPase assay [2]: the basal ATPase of EhClpB was similar to that of the purified EcClpB

Molecule: Nc1ncnc2c1ncn2[C@@H]1O[C@H](COP(=O)(O)OP(=O)(O)OP(O)(O)=S)[C@@H](O)[C@H]1O [ATPγS, adenosine-5'-(γ-thio)-triphosphate]
- filter retention with SDS-PAGE, nucleotide-induced binding to aggregated G6PDH [3]: only ATPγS induces significant binding of EcClpB to the aggregates

- stoichiometry N [4]: 6
Molecule: ClpB from Ehrlichia chaffeensis (natural protein)
